Series [1] has as its system CRAB strain AC3. Kind of series: Antibiotic MIC (CLSI microdilution or gradient strips). Particulars: Acinetobacter baumannii, AC3, sputum isolate. The format is cell-based, Acinetobacter baumannii. The method, then:
(§1) All minimum inhibitory concentration (MIC) determinations for antibiotics were performed by the standard microdilution method in 96-well microplate (Thermo-Scientific, Roskilde, Denmark) or by gradient test strips (Liofilchem, Italy) according to the Clinical and Laboratory Standards Institute guidelines. Escherichia coli ATCC 25922 was used as control.
A general note: Broth dilution looks for growth in wells or tubes with falling amounts of substance.

Series [2] deals with CRAB strain AC9. The description is as above. The series is classed as cell-based, Acinetobacter baumannii. The settings on record: Acinetobacter baumannii, AC9; CSF isolate; CLSI; read-out: MIC, AC9. As to the method: as §1
Series [3] has as its system CRAB strain AC46. The description is as above. The format is cell-based, Acinetobacter baumannii. The settings on record: Acinetobacter baumannii, AC46; sputum isolate; CLSI; read-out: MIC, AC46. The method, then: as §1
Series [4] relates to A. baumannii ATCC 19606 type strain. The series is described as above. Particulars: Acinetobacter baumannii, ATCC19606. The series is classed as cell-based, Acinetobacter baumannii. As to the method:
as §1

Series [5] has as its system CRAB strain AC8. Described as above. The format is cell-based, Acinetobacter baumannii. The settings on record: Acinetobacter baumannii, AC8; sputum isolate; CLSI; read-out: MIC, AC8. The method, then: as §1
For series [6], the system named is CRAB strain AC44. The description is as above. The format is cell-based, Acinetobacter baumannii. Particulars: Acinetobacter baumannii, AC44, urine isolate. The method, then:
as §1

Series [7] has as its system CRAB strain AC2. Described as above. The series is classed as cell-based, Acinetobacter baumannii. Particulars: Acinetobacter baumannii, AC2; wound isolate; CLSI; read-out: MIC, AC2. As to the method:
as §1

Series [8] concerns CRAB strain AC5. The description is as above. The series is classed as cell-based, Acinetobacter baumannii. The settings on record: Acinetobacter baumannii, AC5, urine isolate. The method, then: as §1
The test system of series [9] is CRAB strain AC1. The description is as above. The format is cell-based, Acinetobacter baumannii. Particulars: Acinetobacter baumannii, AC1, wound isolate. As to the method:
as §1

Series [10] has as its system CRAB strain AC4. Described as above. The series is classed as cell-based, Acinetobacter baumannii. The settings on record: Acinetobacter baumannii, AC4; trachea isolate; CLSI; read-out: MIC, AC4. As to the method: as §1
The subject of series [11] is CRAB strain AC6. The series is described as above. The format is cell-based, Acinetobacter baumannii. The settings on record: Acinetobacter baumannii, AC6; blood isolate; CLSI; read-out: MIC, AC6. As to the method: (§2) All minimum inhibitory concentration (MIC) determinations for antibiotics were performed by the standard microdilution method in 96-well microplate (Thermo-Scientific, Roskilde, Denmark) or by gradient test strips (Liofilchem, Italy) according to the Clinical and Laboratory Standards Institute guidelines.

In series [12] the test system is CRAB strain AC7. Described as above. The format is cell-based, Acinetobacter baumannii. Particulars: Acinetobacter baumannii, AC7; blood isolate; CLSI; read-out: MIC, AC7. As to the method:
as §2

Series [13] relates to HepG2 hepatocytes. Kind of series: HepG2 cell toxicity (CellTiter-Glo, ATP). The series is classed as cell-based. The settings on record: 10 µM, ATP level. The method, then:
The cell toxicity of selected BPP-PNAs was determined using HepG2 hepatocytes grown in DMEM (low glucose) medium supplemented with 100 U/mL penicillin, 100 µg/mL streptomycin, 1% glutamax, and 10% fetal bovine serum (FBS) (Thermofisher Scientific, Roskilde, Denmark), at 37 °C with 5% CO2. Then, 7000–10,000 cells were seeded in each well of a 96-well plate. After 48 h, the BPP-PNAs were added (six replicates for each concentration), followed by overnight incubation. Total amount of adenosine triphosphate (ATP) was used as a measure of cell viability, according to the CellTiter-Glo luminescent cell viability assay (Promega, Madison, WI, USA) kit. BPP-PNAs concentrations ranged from 2.5 to 20 µM. Potassium dichromate (100 µM) was used as a positive control.
For orientation: ATP-based viability assays read luminescence as a measure of living cells.

For series [14], the system named is CRAB strain AC44. As to the kind of experiment: BPP-PNA MIC, broth microdilution. The format is cell-based, Acinetobacter baumannii. Particulars: 37 °C, 18 h. As to the method: (§3) MIC values were determined by broth microdilution according to standard protocols with a few modifications. An overnight bacterial cell culture was diluted to approximately 5 × 10^5 CFU/mL in non-cation-adjusted Muller Hinton Broth (MHB). Then, 180 µL bacterial solutions were dispensed into a low-bind 96-well plate (Thermo-Scientific, Roskilde, Denmark) along with 20 µL of BPP-PNA compound (BPP-PNA was serially diluted 2-fold from 16 to 0.5 µM in a 96-well plate). The plate was incubated in a Tecan Genios plate reader (GMI, Minnesota, Ramsey, USA) at 37 °C for 18 h with linear shaking, OD was measured every 20 min at 595 nm. […] The minimum bactericidal concentration (MBC) values were determined by plating 10 µL samples from the wells with no visible turbidity onto Mueller–Hinton agar plates. The MBC is determined the lowest concentration of BPP-PNA that reduces the viability of the initial bacterial inoculum by ≥99.9% (3-log reduction in CFU/mL). A minimum of two independent experiments (biological replicates) of the assay were conducted, and two technical replicates were used in each experiment for each bacterium, compound, and concentration.

The subject of series [15] is A. baumannii ATCC 19606. Kind of series: BPP-PNA MIC, broth microdilution. Particulars: 37 °C, 18 h. The format is cell-based, Acinetobacter baumannii. As to the method:
as §3

Series [16] relates to CRAB strains. Kind of series: BPP-PNA MIC/MBC summarised over the panel of strains. The format is cell-based, Acinetobacter baumannii. The settings on record: text on Table 2, (R-Ahx-R)4 BPP. As to the method:
as §3

The test system of series [17] is CRAB strain AC2. Kind of series: BPP-PNA MIC, broth microdilution. The format is cell-based, Acinetobacter baumannii. Particulars: Sigma MHB medium without cation; 37 °C, 18 h. As to the method:
as §3

The subject of series [18] is A. baumannii SSI1104. Kind of series: BPP-PNA MIC, broth microdilution. The series is classed as cell-based, Acinetobacter baumannii. The settings on record: Sigma MHB medium without cation; 37 °C, 18 h. The method, then:
as §3, with “An overnight bacterial cell culture was diluted to approximately 5 × 10^5 CFU/mL in non-cation-adjusted Muller Hinton Broth (MHB).” left out

The test system of series [19] is CRAB strain AC46. Kind of series: BPP-PNA MIC, broth microdilution. The format is cell-based, Acinetobacter baumannii. The settings on record: Sigma MHB medium without cation; 37 °C, 18 h. As to the method: as §3, with “An overnight bacterial cell culture was diluted to approximately 5 × 10^5 CFU/mL in non-cation-adjusted Muller Hinton Broth (MHB).” left out
Series [20] has as its system CRAB strain SSI1104. As to the kind of experiment: Antibiotic MIC (CLSI microdilution or gradient strips). The series is classed as cell-based, Acinetobacter baumannii. The settings on record: Acinetobacter baumannii, SSI1104. As to the method: as §1
[21] abbreviates: Sigma MHB medium without cation.
[22] abbreviates: Sigma MHB medium without cation, ~5 × 10^5 CFU/mL, OD595 < 0.1.

Converted amounts (≈) assume the structure as drawn. {(kff)3k-eg1} = D-form (kff)3k peptide with eg1 linker (8-amino-3,6-dioxaoctanoyl), on the PNA N terminus; {NH2} = C-terminal amide

As to `C[C@@H](O)[C@H]1C(=O)N2C(C(=O)O)=C(SCCN=CN)C[C@H]12` [Imipenem], the MIC in [1] turned out to be 32 µg/mL (≈ 107 µM); in series [2], 16 µg/mL (≈ 53.4 µM); in series [3] it was 16 µg/mL (≈ 53.4 µM); in [4], 1 µg/mL (≈ 3.34 µM); in series [5], 16 µg/mL (≈ 53.4 µM); in series [6], 16 µg/mL (≈ 53.4 µM). For the same molecule, the MIC in series [7] was 16 µg/mL (≈ 53.4 µM); in [8], 16 µg/mL (≈ 53.4 µM); in series [9], 8 µg/mL (≈ 26.7 µM); in series [10], 8 µg/mL (≈ 26.7 µM); in series [11] it was 16 µg/mL (≈ 53.4 µM); in series [12], 16 µg/mL (≈ 53.4 µM).
Take “H-(R-Ahx-R)4-Ahx-GAGGCCATGAC-NH2 (N-terminal (R-Ahx-R)4-Ahx peptide, C-terminal amide, backbone not given here, further chemistry not given here) [PNA 5613, anti-ftsZ (R-Ahx-R)4-Ahx-PNA, match]”: the “toxicity in HepG2” value in series [13] is “very significant toxicity”. Further, the “MIC, AC44” value in series [14] (MHB without cation (Oxoid)) was more than 16 µM. Further, in series [15] (MHB without cation (Oxoid)), the “MIC, ATCC 19606” value is recorded as more than 16 µM. For the same molecule, in series [16], the MIC is reported as more than 16 µM.
Consider “H-(kff)3k-eg1-TGATTTGCCAC-NH2 (all peptide nucleic acid (PNA), 5' {(kff)3k-eg1}, 3' {NH2}) [PNA 5823, anti-acpP PNA with D-form peptide, match]”, for which, in series [14] (setting [21]), the “MIC, AC44” value was determined as 4 µM. Also, the “MIC, ATCC 19606” value in series [15] (setting [22]) came out at 4 µM. Also, in series [17], the “MIC, AC2” value was determined as 4 µM. Further, the “MIC, SSI 1104” value in series [18] was 4 µM. Besides, the “MIC, AC46” value in [19] was determined as 4 µM.
Take `CN(C)c1cc(NC(=O)CNC(C)(C)C)c(O)c2c1C[C@H]1C[C@H]3[C@H](N(C)C)C(O)=C(C(N)=O)C(=O)[C@@]3(O)C(O)=C1C2=O` [Tigecycline]: the MIC in series [1] was 0.5 µg/mL (≈ 0.854 µM); in series [2] it was 1 µg/mL (≈ 1.71 µM); in series [3], 0.5 µg/mL (≈ 0.854 µM); in series [4], 0.5 µg/mL (≈ 0.854 µM); in [5], 1 µg/mL (≈ 1.71 µM); in series [6], 1 µg/mL (≈ 1.71 µM). Also, the MIC in series [20] is 1 µg/mL (≈ 1.71 µM); in series [7], 1 µg/mL (≈ 1.71 µM); in [8], 1 µg/mL (≈ 1.71 µM); in series [9], 0.5 µg/mL (≈ 0.854 µM); in series [10] it was 1 µg/mL (≈ 1.71 µM); in [11] it was 1 µg/mL (≈ 1.71 µM). The MIC in [12] came to 1 µg/mL (≈ 1.71 µM).
Take “H-(kff)3k -eg1-TGACTTGTCAC-NH2 (all peptide nucleic acid (PNA), 5' {(kff)3k-eg1}, 3' {NH2}) [PNA 5824, anti-acpP PNA with D-form peptide, mismatch]”: the “MIC, AC44” value in [14] (setting [21]) worked out at 4 µM. Also, in series [15] (setting [22]), the “MIC, ATCC 19606” value turned out to be 8 µM. The “MIC, AC2” value in [17] was found to be 8 µM. Moreover, in series [18], the “MIC, SSI 1104” value was 8 µM. Further, the “MIC, AC46” value in series [19] is 4 µM.

For the origin of these results see article PMC8071358, “Targeting of the Essential acpP, ftsZ, and rne Genes in Carbapenem-Resistant Acinetobacter baumannii by Antisense PNA Precision Antibacterials” (Biomedicines, 2021).
